Test results: US9969732B2, “Tetrahydroisoquinoline estrogen receptor modulators and uses thereof” (Genentech, Inc., priority 2016, dated 2018)

Molecular target: T1, ER-alpha (WT) (Homo sapiens, UniProt P03372)
T1 construct: endogenous in cells; host or cells: MCF7 breast cancer cells
T1 sequence (P03372 1-595): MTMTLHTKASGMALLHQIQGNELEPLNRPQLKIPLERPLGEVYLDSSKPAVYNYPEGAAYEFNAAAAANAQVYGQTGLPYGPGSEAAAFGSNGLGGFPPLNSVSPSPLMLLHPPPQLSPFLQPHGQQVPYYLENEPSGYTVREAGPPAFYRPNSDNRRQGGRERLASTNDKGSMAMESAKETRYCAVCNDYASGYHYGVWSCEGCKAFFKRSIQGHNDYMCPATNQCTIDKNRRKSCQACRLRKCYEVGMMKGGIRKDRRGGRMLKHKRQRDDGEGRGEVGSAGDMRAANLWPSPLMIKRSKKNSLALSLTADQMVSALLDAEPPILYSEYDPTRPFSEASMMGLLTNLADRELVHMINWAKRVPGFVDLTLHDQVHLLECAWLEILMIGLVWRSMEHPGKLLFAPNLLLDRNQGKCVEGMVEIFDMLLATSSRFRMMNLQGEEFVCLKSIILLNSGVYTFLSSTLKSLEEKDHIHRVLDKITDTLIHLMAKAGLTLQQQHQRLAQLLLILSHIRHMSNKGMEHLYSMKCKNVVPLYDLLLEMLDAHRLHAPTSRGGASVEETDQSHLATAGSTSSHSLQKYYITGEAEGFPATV
Assay: Breast Cancer Cell ERa High Content Fluorescence Imaging Degradation Assay (MCF7 HCS)
Format: cell-based
Details: MCF7 breast cancer cells, 4 hours incubation; for EC50: inflexion point of curve; for ERalpha (WT) MCF7 HCS (S inf): plateau of the maximal effect, DMSO and Fulvestrant define 0% and 100% changes in ESR1

Structure (SMILES)	EC50 [nM]	ERalpha (WT) MCF7 HCS (S inf) [%]
Oc1ccc2c(c1)CCN(CC(F)(F)F)C2c1c(F)cc(OC2CN(CCCF)C2)cc1F (single isomer, unassigned) [Example 143]	22	−100
C[C@]1(c2ccc(OCCN3CC(CF)C3)cc2)c2ccc(O)cc2CCN1CC(F)(F)F [Example 112, (1S)-1-[4-[2-[3-(fluoromethyl)azetidin-1-yl]ethoxy]phenyl]-1-methyl-2-(2,2,2-trifluoroethyl)-3,4-dihydroisoquinolin-6-ol]	4.41	−97
C[C@@H]1CN(S(C)(=O)=O)[C@H](c2ccc(OCCN3CC(CF)C3)cc2)c2ccc(O)cc21 [Example 120, (1R,4S)-1-[4-[2-[3-(fluoromethyl)azetidin-1-yl]ethoxy]phenyl]-4-methyl-2-methylsulfonyl-3,4-dihydro-1H-isoquinolin-6-ol]	25.9	−60
C[C@@H]1Cc2cc(O)ccc2[C@@H](c2ccc(OCCN3CC(CF)C3)cc2)N1S(C)(=O)=O [Example 116, (1R,3R)-1-[4-[2-[3-(fluoromethyl)azetidin-1-yl]ethoxy]phenyl]-3-methyl-2-methylsulfonyl-3,4-dihydro-1H-isoquinolin-6-ol]	0.3	−93
C[C@@H](CN1CCc2cc(O)ccc2[C@]1(C)c1ccc(OCCN2CC(CF)C2)cc1)C(=O)O [Example 135, (S)-3-((S)-1-(4-(2-(3-(fluoromethyl)azetidin-1-yl)ethoxy)phenyl)-6-hydroxy-1-methyl-3,4-dihydroisoquinolin-2(1H)-yl)-2-methylpropanoic acid]	≥ 100	
C[C@@]1(c2ccc(OCCN3CC(CF)C3)cc2)c2ccc(O)cc2CCN1CC(F)(F)F [Example 113, (1R)-1-[4-[2-[3-(fluoromethyl)azetidin-1-yl]ethoxy]phenyl]-1-methyl-2-(2,2,2-trifluoroethyl)-3,4-dihydroisoquinolin-6-ol]	0.0608	−99
